Test results: US20250213701A1, “MEDICAMENT FOR TREATING HUMAN TUMOR BASED ON ERF3A-TARGETING PROTEOLYSIS MECHANISM” (SUZHOU DEGEN BIO-MEDICAL CO., LTD., priority 2022, published 2025)

Tests used:
Assay type in all cases: cell-based, human
PC-3 cells = experiment: Anti-proliferative toxicity against prostate cancer cell line PC-3 (CCK8); settings: 3 days
How it was run: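 PC-3 cells (4000/well, pre-cultured 24 h) exposed in triplicate to compound at final 0.00001-1.0 μM for 3 days at 37 °C, 5% CO2. Viability read by CCK8, 1-4 h at 37 °C, absorbance at 450 nm.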

VCaP cells = experiment: Anti-proliferative toxicity against prostate cancer cell line Vcap (CCK8); settings: 3 days, CCK8
How it was run: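 VCaP cells (DMEM, 10% FBS) seeded 20000 cells/well, cultured 72 h, then exposed in triplicate to compound at final well concentrations of 0.00001–0.16 μM for 3 days at 37 °C, 5% CO2. Viability by CCK8, 1–4 h at 37 °C, absorbance at 450 nm.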

22Rv1 cells = experiment: Anti-proliferative toxicity against prostate cancer cell line 22Rv1 (CCK8); settings: 3 days, CCK8
How it was run: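 22Rv1 cells pre-cultured for 48 h, then exposed to compounds at 0.00001-1.0 μM final, in triplicate, for 3 days. Viability read by CCK8 absorbance at 450 nm after 1-4 h at 37 °C.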

Row | Compound | IC50 (PC-3 cells; Homo sapiens, 72 h) | IC50 (VCaP cells; Homo sapiens, 72 h) | IC50 (22Rv1 cells; Homo sapiens, 72 h) | IC50 (PC-3 cells) | IC50 (VCaP cells) | IC50 (22Rv1 cells)
1 | CC1[C@H](Nc2cccc(NC(=O)[C@H]3CC[C@H]4[C@@H]5CC[C@H]6NC(=O)C=C[C@]6(C)[C@H]5CC[C@]34C)c2)CCC[C@H]1Nc1cccc2c1C(=O)N(C1CCC(=O)NC1=O)C2=O (stereo partly drawn) [C69, N-(3-(N—(N-(4-(2-(3-(2,6-dioxopiperidine))-isoindole-1,3-dione))-2-methyl-1R,3R-cyclohexanediamine))phenyl)-3-oxo-4-aza-5α-androst-1-ene-17β-carboxamide] | 10 to 1000 nM | 0.1 to 10 nM | 0.1 to 10 nM | – | – | –
2 | C[C@]12C=CC(=O)N[C@@H]1CC[C@@H]1[C@@H]2CC[C@]2(C)[C@@H](C(=O)Nc3cccc(N[C@H]4C[C@H](Nc5cccc6c5C(=O)N(C5CCC(=O)NC5=O)C6=O)CC(F)(F)C4)c3)CC[C@@H]12 (stereo partly drawn) [C74, N-(3-(N—(N-(4-(2-(3-(2,6-dioxopiperidine))-isoindole-1,3-dione))-5,5-difluoro-1S,3S-cyclohexanediamine))phenyl)-3-oxo-4-aza-5α-androst-1-ene-17β-carboxamide] | 10 to 1000 nM | 0.1 to 10 nM | 0.1 to 10 nM | – | – | –
3 | C[C@]12C=CC(=O)N[C@@H]1CC[C@@H]1[C@@H]2CC[C@]2(C)[C@@H](C(=O)Nc3cccc(N[C@@H]4COC[C@@H](Nc5cccc6c5C(=O)N(C5CCC(=O)NC5=O)C6=O)C4)c3)CC[C@@H]12 (stereo partly drawn) [C75, N-(3-(N—(N-(4-(2-(3-(2,6-dioxopiperidine))-isoindole-1,3-dione))-tetrahydropyran-3S,5S-diamine))phenyl)-3-oxo-4-aza-5α-androst-1-ene-17β-carboxamide] | 10 to 1000 nM | 10 to 1000 nM | 10 to 1000 nM | – | – | –
4 | C[C@]12C=CC(=O)N[C@@H]1CC[C@@H]1[C@@H]2CC[C@]2(C)[C@@H](C(=O)Nc3cccc(N[C@@H]4CNC[C@@H](Nc5cccc6c5C(=O)N(C5CCC(=O)NC5=O)C6=O)C4)c3)CC[C@@H]12 (stereo partly drawn) [C76, N-(3-(N—(N-(4-(2-(3-(2,6-dioxopiperidine))-isoindole-1,3-dione))-piperidine-3S,5S-diamine))phenyl)-3-oxo-4-aza-5α-androst-1-ene-17β-carboxamide] | 10 to 1000 nM | 10 to 1000 nM | 10 to 1000 nM | – | – | –
5 | CN1C[C@@H](Nc2cccc(NC(=O)[C@H]3CC[C@H]4[C@@H]5CC[C@H]6NC(=O)C=C[C@]6(C)[C@H]5CC[C@]34C)c2)C[C@H](Nc2cccc3c2C(=O)N(C2CCC(=O)NC2=O)C3=O)C1 (stereo partly drawn) [C77, N-(3-(N—(N-(4-(2-(3-(2,6-dioxopiperidine))-isoindole-1,3-dione))-1-methylpiperidine-3S,5S-diamine))phenyl)-3-oxo-4-aza-5α-androst-1-ene-17β-carboxamide] | 10 to 1000 nM | 10 to 1000 nM | 10 to 1000 nM | – | – | –
6 | C[C@]12C=CC(=O)N[C@@H]1CC[C@@H]1[C@@H]2CC[C@]2(C)[C@@H](C(=O)Nc3cccc(N[C@@H]4CCC[C@@H](Nc5ccc(F)c6c5C(=O)N(C5CCC(=O)NC5=O)C6=O)C4)c3)CC[C@@H]12 (stereo partly drawn) [C78, N-(3-(N—(N-(7-fluoro-4-(2-(3-(2,6-dioxopiperidine))-isoindole-1,3-dione))-1R,3R-cyclohexanediamine))phenyl)-3-oxo-4-aza-5α-androst-1-ene-17β-carboxamide] | 0.1 to 10 nM | 0.1 to 10 nM | 0.1 to 10 nM | – | – | –
7 | C[C@]12C=CC(=O)N[C@@H]1CC[C@@H]1[C@@H]2CC[C@]2(C)[C@@H](C(=O)Nc3cccc(N[C@@H]4CCC[C@@H](Nc5cc(F)cc6c5C(=O)N(C5CCC(=O)NC5=O)C6=O)C4)c3)CC[C@@H]12 (stereo partly drawn) [C79, N-(3-(N—(N-(6-fluoro-4-(2-(3-(2,6-dioxopiperidine))-isoindole-1,3-dione))-1R,3R-cyclohexanediamine))phenyl)-3-oxo-4-aza-5α-androst-1-ene-17β-carboxamide] | 0.1 to 10 nM | 0.1 to 10 nM | 0.1 to 10 nM | – | – | –
8 | CN(c1cccc(NC(=O)[C@H]2CC[C@H]3[C@@H]4CC[C@H]5NC(=O)C=C[C@]5(C)[C@H]4CC[C@]23C)c1)[C@@H]1CCC[C@@H](Nc2cccc3c2C(=O)N(C2CCC(=O)NC2=O)C3=O)C1 (stereo partly drawn) [C80, N-(3-(N—(N-methyl-N-(4-(2-(3-(2,6-dioxopiperidine))-isoindole-1,3-dione))-1R,3R-cyclohexanediamine))phenyl)-3-oxo-4-aza-5α-androst-1-ene-17β-carboxamide] | 10 to 1000 nM | 0.1 to 10 nM | 0.1 to 10 nM | – | – | –
9 | C[C@]12CCC(=O)N[C@@H]1CC[C@@H]1[C@@H]2CC[C@]2(C)[C@@H](C(=O)Nc3cccc(N[C@@H]4CCC[C@@H](Nc5cccc6c5C(=O)N(C5CCC(=O)NC5=O)C6=O)C4)c3)CC[C@@H]12 (stereo partly drawn) [C81, N-(3-(N—(N-(4-(2-(3-(2,6-dioxopiperidine))-isoindole-1,3-dione))-1R,3R-cyclohexanediamine))phenyl)-3-oxo-4-aza-5α-androstane-17β-carboxamide] | – | – | – | 10 to 1000 nM | 0.1 to 10 nM | 0.1 to 10 nM
10 | N-(3-(N—(N-(4-(2-(3-(2,6-dioxopiperidine))-isoindole-1,3-dione))-6S-methyl-1S,3R-cyclohexanediamine))phenyl)-3-oxo-4-aza-5α-androst-1-ene-17β-carboxamide and N-(3-(N—(N-(4-(2-(3-(2,6-dioxopiperidine))-isoindole-1,3-dione))-4R-methyl-1R,3S-cyclohexanediamine))phenyl)-3-oxo-4-aza-5α-androst-1-ene-17β-carboxamide [C70] | – | – | – | 10 to 1000 nM | 0.1 to 10 nM | 0.1 to 10 nM
11 | N-(3-(N—(N-(4-(2-(3-(2,6-dioxopiperidine))-isoindole-1,3-dione))-(1R,4S)-bicyclo[2,2,1]heptane-2R,6R-diamine))phenyl)-3-oxo-4-aza-5α-androst-1-ene-17β-carboxamide and N-(3-(N—(N-(4-(2-(3-(2,6-dioxopiperidine))-isoindole-1,3-dione))-(1S,4R)-bicyclo[2,2,1]heptane-2R,6R-diamine))phenyl)-3-oxo-4-aza-5α-androst-1-ene-17β-carboxamide [C71] | – | – | – | > 1000 nM | 10 to 1000 nM | 10 to 1000 nM
12 | N-(3-(N—(N-(4-(2-(3-(2,6-dioxopiperidine))-isoindole-1,3-dione))-(1R,4S)-bicyclo[2,2,2]octane-2R,6R-diamine))phenyl)-3-oxo-4-aza-5α-androst-1-ene-17β-carboxamide and N-(3-(N—(N-(4-(2-(3-(2,6-dioxopiperidine))-isoindole-1,3-dione))-(1S,4R)-bicyclo[2,2,2]octane-2R,6R-diamine))phenyl)-3-oxo-4-aza-5α-androst-1-ene-17β-carboxamide [C72] | – | – | – | > 1000 nM | 10 to 1000 nM | 10 to 1000 nM
13 | N-(3-(N—(N-(4-(2-(3-(2,6-dioxopiperidine))-isoindole-1,3-dione))-(1R,5S)-bicyclo[3,2,2]nonane-7R,8R-diamine))phenyl)-3-oxo-4-aza-5α-androst-1-ene-17β-carboxamide and N-(3-(N—(N-(4-(2-(3-(2,6-dioxopiperidine))-isoindole-1,3-dione))-(1S,5R)-bicyclo[3,2,2]nonane-7R,8R-diamine))phenyl)-3-oxo-4-aza-5α-androst-1-ene-17β-carboxamide [C73] | – | – | – | > 1000 nM | 10 to 1000 nM | 10 to 1000 nM
